Measurements as given in paper PMC12867150, “A fungi-derived cyclic peptide enhances Th9-mediated antitumor immunity by targeting ZAP70 and SREBP1” (The Journal of Clinical Investigation, 2025).
Where “and” joins values, the source holds several entries; their conditions need not be identical. Identical values can stand only once. Counter-ions that a name gives are not always drawn.

Key:
[1] = test system: mitochondria of Th9 cells; test: Flow cytometry with MitoTracker Deep Red (Figure 4M, 5L, 7F, 7J); format: cell-based, mouse; settings: for mitochondrial membrane potential measured by MitoTracker staining: Figure 7F; for mitochondrial membrane potential measured by MitoTracker staining / Mito tracker (flow cytometric quantification): (n = 3); for Mito tracker (flow cytometric quantification): Figure 5L; for mitochondrial membrane potential in Th9 cells: Figure 7J, one per column (n = 4)
Protocol: […] Cells were incubated with the respective dyes, washed, and subjected to flow cytometry or fluorescence microscopy analysis. For ultrastructural assessment, mitochondrial number and diameter were quantified from high-resolution transmission electron microscopy (TEM) images using ImageJ software.

[2] = test system: Th9 cells; test: IL-9+ Th9 cells with fatostatin (Figure 7A); format: cell-based, mouse; set-up: IL-9 expression in Th9 cells: unit not given here; settings: for IL-9 expression in Th9 cells: Figure 7A, individual replicates, one per column (n = 4); for IL-9 production: fatostatin 5 μM, alone or with EpA 10 μM, result in words
Description: (B) Quantitative PCR analysis of Il9 mRNA expression in cells treated as in A (n = 3). (C–F) Flow cytometric analysis of TNF-α production (C), CD69 expression (D), PD-1 expression (E), and mitochondrial membrane potential measured by MitoTracker staining (F) in Th9 cells treated with the indicated conditions (n = 4 for C–E; n = 3 for F). […] Cluster 2 includes genes related to calcium signaling, glycolysis, oxidative phosphorylation, and ERK signaling; cluster 6 includes genes associated with lipid biosynthesis. […] Statistical significance was determined using 1-way ANOVA followed by Tukey’s post hoc test (A–F and H–J). Data are presented as mean ± SEM (A–F and H–J). **P < 0.01, ***P < 0.001, ****P < 0.0001. […] It is left out because it is the vehicle control, not a substance.
T cell polarization was initiated under plate-bound anti-CD3 (2 μg/mL, clone 17A2, BioXCell, catalog BE0002) and soluble anti-CD28 (1 μg/mL, clone 37.51, BioXCell, catalog BE0015-1) stimulation, with the addition of cytokines and neutralizing antibodies specific to each subset. For Th9 cells, these included IL-4 (10 ng/mL, Peprotech, catalog 400-04), TGF-β (1 ng/mL, EPOTO Biotech, catalog HF-2021), anti–IL-12 (5 μg/mL, clone C17.8, BioXCell, catalog BE0051), and anti–IFN-γ (10 μg/mL, clone XMG1.2, BioXCell, catalog BE0055); for Th1 cells, these included IL-12 (10 ng/mL, GenScript, catalog Z03211-50) and anti–IL-4 (5 μg/mL, clone 11B11, BioXCell, catalog BE0045); for Th2 cells, these included IL-4 (50 ng/mL), anti–IFN-γ (20 μg /mL), anti–IL-12 (5 μg/mL), Th17 cells: IL-6 (20 ng/mL, EPOTO Biotech, catalog MF-1006), TGF-β (1 ng/mL), IL-1β (10 ng/mL, Peprotech, catalog AF-211-11B), anti–IFN-γ (10 μg/mL), anti–IL-12 (5 μg/mL), and anti–IL-4 (5 μg/mL); and for Tregs, these included TGF-β (3 ng/mL). After 3 days of initial culture, cells were either collected for downstream assays or continued in extended culture with refreshed cytokines to maintain lineage commitment.
[…] Dead cells were detected using Fixable Viability Dye eFluor 780 (eBioscience, catalog 65-0865).

[3] = test system: mitochondria of human Th9 cells; test: Mitochondrial membrane potential / mass of human Th9 cells (Figure 8D, S9B); format: cell-based; settings: for mitochondrial mass using Mito Tracker in human Th9 cells: flow cytometry, Supplemental Figure 9B
Protocol: For Th9 polarization, cultures were supplemented with IL-4 (10 ng/mL, PeproTech, catalog AF-200-04), TGF-β (1 ng/mL), and neutralizing anti–IFN-γ monoclonal antibody (10 μg/mL, clone B27, BioXcell, catalog BE0245). After 3 days of initial culture, cells were either collected for downstream assays or continued in extended culture with refreshed cytokines to maintain lineage commitment without antibodies. Th9 cells were collected at days 4, 5, and 6 for subsequent in vitro assays. For adoptive transfer studies, day 4–cultured Th9 cells were washed and prepared for intravenous injection.
Mitochondrial mass and membrane potential were assessed using MitoTracker™ Deep Red FM (Thermo Fisher Scientific, catalog M22426) and TMRM (tetramethylrhodamine methyl ester; Macklin, catalog T868125), respectively, following the manufacturers’ protocols. Cells were incubated with the respective dyes, washed, and subjected to flow cytometry or fluorescence microscopy analysis. For ultrastructural assessment, mitochondrial number and diameter were quantified from high-resolution transmission electron microscopy (TEM) images using ImageJ software.

[4] = single agent, individual replicates

Row | Compound | mitochondrial membrane potential measured by MitoTracker staining [1, 4] | IL-9 expression in Th9 cells ([2]; single agent) | IL-9 production [2] | mitochondrial membrane potential, human EpA-Th9 ([3]; with fatostatin, result in words) | MitoTracker Deep Red ([1]; Figure 4M, individual replicates, (n = 5)) | Mito tracker (flow cytometric quantification) ([1]; EpA + ERKin combination, individual replicates) | Mito tracker (flow cytometric quantification) ([1]; EpA + MEKin combination, individual replicates) | Mito tracker (flow cytometric quantification) [1, 4] | mitochondrial membrane potential measured by MitoTracker staining ([1]; EpA + Fato combination, individual replicates) | mitochondrial membrane potential in Th9 cells ([1]; MigR1 vector, individual replicates) | mitochondrial membrane potential in Th9 cells ([1]; Srebf1 (overexpressing SREBP1), individual replicates) | mitochondrial membrane potential ([1]; MEK/ERK inhibition in EpA-treated Th9 cells, MitoTracker, result in words) | mitochondrial membrane potential ([1]; SREBP1 inhibition (fatostatin) in EpA-Th9, result in words) | EpA-induced mitochondrial membrane potential upon SREBP1 overexpression ([1]; result in words) | mitochondrial integrity ([1]; result in words) | IL-9 expression in Th9 cells [2] | mitochondrial mass using Mito Tracker in human Th9 cells ([3]; replicate 1) | mitochondrial mass using Mito Tracker in human Th9 cells ([3]; replicate 2) | mitochondrial mass using Mito Tracker in human Th9 cells ([3]; replicate 3) | mitochondrial membrane potential, human Th9 ([3]; result in words)
1 | CCCc1cc(-c2nc(-c3ccc(C)cc3)cs2)ccn1 [fatostatin, fatostatin hydrobromide, reference compound] | 1160 and 1151 and 1173 | 25.4 and 26.8 and 28.6 and 27.5 | significantly upregulated IL-9 production | further augmented |  |  |  |  |  |  |  |  |  |  |  |  |  |  |  | 
2 | anteiso-C15 Leu7 surfactin [EpA] | 1400 and 1434 and 1409 | 46.6 and 46.1 and 47.5 and 45.4 | further enhanced when combined with EpA |  | 2580000 and 2400000 and 2450000 and 2490000 and 2480000 | 2055 and 2045 and 2104 | 2331 and 2453 and 2355 | 1845 and 1728 and 1865 | 1707 and 1737 and 1699 | 5844 and 5817 and 5963 and 6149 | 5503 and 5279 and 5218 and 5340 | paradoxical increase in mitochondrial membrane potential | further augmented | abolished | improved mitochondrial integrity | 74.4 and 75.9 and 77.3 and 78.9 | 2.888 ×10^5 | 2.867 ×10^5 | 2.9 ×10^5 | increased mitochondrial membrane potential
